According to patent publication US8653117B2, “Composition comprising at least one oxazoline to inhibit migration of langerhans cells, and uses thereof” (Laboratoires Expanscience, priority 2001, dated 2014):

Legend:
[1] = tested on: Langerhans cells (LC) and dendritic cells (DC) in mice; assay: Migration of dendritic cells from ear skin to draining ganglions in mice sensitized by FITC hapten; format: in vivo; details: for Migration inhibition in %: FITC hapten; for migration of DCs to LGs (in words): OX100 alone, mice sensitized by FITC hapten
Text: FITC (Fluoresceine isothiocyanate, Sigma, St Louis, Mo.) was extemporaneously diluted in an acetone mix (dibutylphthalate (1:1)).
Oxazoline OX100 and LU105 (LU 105 is an MMP inhibitor, corresponding to a peptide extract of white lupin marketed by the Expanscience Company under the brand name Actimp 193®) were supplied by “Laboratoires Expanscience” and formulated alone or association with each other in an inert vehicle compatible with a topical application (oxazoline OX100 (0.1%) LU105 (2%)). The different formulations were applied on the ears of mice twice per day for 4 consecutive days. 1.5% of FITC was applied on both ears (one treated and the other not treated (Control)) three hours after the last application.
The effect of the two molecules was evaluated in vivo in mice. 1.5% FITC (2×5 μl) was applied on the skin of both ears. 24 h later, the mice were sacrificed and a cellular suspension was prepared from auricular and cervical ganglions (draining ganglions, hereinafter denoted GL) or from the poplital ganglions (non-draining ganglions, negative control). The tissues were cut and cells separated by filtration (100 μm filter, Falcon; Becton Dickinson) and then washed. The cells were then centrifuged for 10 minutes at 600×g (m×s^−2) on a metrizamide gradient (14.5% in RPMI 1640; 7.5% SVF). The interface cells were retrieved, rinsed and then marked with an anti-CDS86 PE-conjugated, biot-MHC CLII mAbs AC plus streptavidine-Cya (PharMingen) and analyzed by flux cytometry. Only the FITC^+, PE^+ and Cya^+ cells are counted since they represent the population of cells that migrated from the skin to GLs following the application of hapten.
FITC (Fluoresceine isothiocyanate, Sigma, St. Louis, Mo.) was diluted extemporaneously in a mixture of acetone and dibutylphthalate (1:1).
Oxazoline OX100 and AK100 (described above) were supplied by “Laboratoires Expanscience” and formulated alone or in association in an inert vehicle compatible with a topical application [OX100 (0.05%) AK100 (0.05%)]. The different formulations were applied on the ears of mice twice per day for 4 consecutive days. Three hours after the last application, 1.5% of FITC was applied on both ears (one treated and the other not treated (Control)).

[2] = tested on: dendritic cells generated in vitro from CD34+ precursors derived from blood from the umbilical cord; assay: Migration of dendritic cells generated in vitro from CD34+ precursors of umbilical cord blood, activated by hapten BB; format: cell-based; details: for inhibition at 1 µM: Dendritic cell, hapten BB; for Percentage of dendritic cells generated in vitro that migrated: BB + OX100 (1 μM)
Procedure: Mononucleated cells were obtained from blood from the umbilical cord of healthy donors by centrifuging on Ficoll. The CD34+ cells were then purified by immunoselection using a specific antibody and magnetic balls (Miltenyi Biotech, Germany). The CD34+ cells were cultivated in the presence of GM-CSF (100 ng/ml), TNF-α (2.5 ng/ml) in RPMI to which 10% calf fetus serum was added for 5 days. TGF-β1, a factor that encourages differentiation of cells to the Langerhans cells […], was added on the 5th day of culture.
Preparation of Media (Ditto Example 2).
Cells were treated by hapten BB on the 7th day (Brandowski base, 1.17 μg/ml) for 24 h, and were then subjected to the migration test.
Migration of LCs (Ditto Example 2).

[3] = tested on: Langerhans cells freshly isolated from human skin; assay: Migration of Langerhans cells freshly isolated from human skin, sensitized by DNSB, two-compartment Matrigel chamber; format: cell-based
Procedure: Epidermal cell suspensions were obtained by enzymatic treatment (0.05% trypsine for 18 h at +4° C.) of fragments of normal human skin taken from plastic surgery. The suspensions obtained contain an average of 2 to 4% of LC. Obtaining suspensions containing an average of 70% of LC is based on the principle of centrifuging on density gradient (Lymphoprep™) and elimination of keratinocytes.
The basic medium chosen for the entire study was PRMI 1640 (Gibco BRL, France). The OX100 molecule supplied by Pharmascience, with a concentration of 10^−2 M in solution in DMSO (Dimethyl Sulfoxide) was diluted in RPMI-1640 and tested at 1 μM.
The sensitizing agent was DNSB (Sigma Aldrich), a soluble form of DNCB (dinitro-chloro-benzene) solubilized in RPMI-BSA and used at a concentration of 50 μM.
A culture chamber system with two compartments (Falcon, Becton Dickinson, France) was used. The upper compartment is separated from the lower compartment by a membrane with 8 μm porosity, on which 50 μg/cm^2 Matrigel was deposited. […] After 18 h incubation at 37° C., the number of living cells that passed through the Matrigel and that are located in the lower compartment is counted under a microscope (the LCs are easily identifiable by their dendritic form). […]

SMILES	Migration inhibition in % ([1]; Example 5, AK100 0.05% topical on ears twice per day for 4 days) [%]	Migration inhibition in % ([1]; Example 4, OX100 0.1% topical on ears twice per day for 4 days) [%]	migration of DCs to LGs (in words) ([1]; Example 4)	Migration inhibition in % ([1]; Example 5, OX100 0.05% topical on ears twice per day for 4 days) [%]	migration of DCs to LGs (in words) ([1]; Example 5)	migration of dendritic cells generated in vitro and activated by hapten BB (in words) ([2]; 1 μM)	inhibition at 1 µM ([2]; experiment 1, 1 μM) [%]	inhibition at 1 µM ([2]; experiment 2, 1 μM) [%]	Percentage of dendritic cells generated in vitro that migrated ([2]; Experiment 1, BB alone 17) [%]	Percentage of dendritic cells generated in vitro that migrated ([2]; Experiment 2, BB alone 24) [%]	migration of LCs induced by DNSB (in words) ([3]; 1 μM)	LC migration index ([3]; DNSB + OX100 (1 μM), 18 h, control cells set to 1, DNSB alone 2.55)
CCCCCCCCCCCC(=O)NC(C)(C)CO [AK100]	15											
CCCCCCCCCCCC1=NC(C)(C)CO1 [OX100, 2-undecyl-4,4-dimethyl-1,3-oxazoline]		30	significantly inhibits	15	significantly inhibits	significantly inhibits	29	15	12	20.3	significantly inhibits	0.98
